“And” between values parts separate entries of the source, which are not always exact repeats. Identical values can stand only once.
Tests used:
[1] = Phenyl azide S3 conversion via HPLC
Description: 3.2 Photocatalyst Screening
3.2.1 Phenyl azide conversion via HPLC
To an 8 mL crimp neck vial with magnetic stirrer bar was added a solution of phenyl azide S3 (1 mM, 10 µL of 100 mM DMSO stock) and photocatalyst (PC, 0.1 mM, 10 µL of 10 mM DMSO stock) in PBS pH = 7.4 (1 mL). The vial was sealed and sparged with Ar for 10 min before being irradiated with a 450 nm light (40W, EvoluChem, PhotoRedOx Box) for 15 min. […]
trifluoromethylbenzoic acid as the internal standard (1 mM) and analysed using analytical HPLC (see Section 2.5 for further details). Conversions were calculated using standard calibration curve of phenyl azide S3 vs. internal standard and are represented as the average of duplicate runs.
Calibration curve of phenyl azide S3 vs. internal standard
(also on this page, place not known: Normalised Intensity (Substrate/Standard))

[2] = Photocatalytic conversion of diazirine, analysis via 19F NMR
Description: To an 8 ml crimp neck vial with a magnetic stirrer bar was added a solution of diazirine (100 µM, 10 µl of 10 mM DMSO stock) and photocatalyst (10 µM, 10 µl of 1 mM DMSO stock) in PBS (pH = 7.4, 1 ml). The vial was sealed and sparged with Ar for 10 min before being irradiated with 450 nm light (30 W LED; EvoluChem, PhotoRedOx Box) for 15 min. The solution was then spiked with p-(trifluoromethyl)benzoic acid as the internal standard (100 µM, chemical shift (δ) = −61.35 ppm) and analysed via ^19F NMR to determine the conversion of diazirine (δ = −64.23 ppm) to the carbinol product (δ = −76.64 ppm)[17]. Conversions are represented as the average of duplicate runs.

[3] = Transient absorption of 4 with substrates (triplet energy / electron transfer); format: physicochemical; details: GSH 50 mM
Source text: (§1) Details of the stationary and time-resolved absorption and emission spectroscopy procedures used for the mechanistic studies are given in Supplementary Section 3.3.

[4] = Stationary and time-resolved absorption and emission spectroscopy (photophysics); format: physicochemical
Source text: as §1

[5] = cited from earlier work
[6] = test system: reporter HeLa cells expressing cytoplasmic HaloTag–SNAP-tag fusion protein; assay: Modified chloroalkane penetration assay (CAPA), HeLa; format: in vitro ADME; details: modified pulse-chase CAPA, 1 h pulse in FluoroBrite DMEM, chase CA–TMR-d12 15 min, BG–SiR-d12 1 µM for normalisation, flow cytometry, Fig. 4f, three biological replicates (mean ± SD)
Description: (§2) CA–TMR-d12 and BG–SiR-d12 were prepared as described previously. HeLa or HEK293T cells were seeded onto 10 cm cell culture dishes and allowed to attach for 24 h under standard cell culture maintenance conditions. The culture medium was replaced with fresh DMEM (5 ml, high glucose) with 10% FCS without antibiotics followed by plasmid (pcDNA5-HaloTag-Pro30-SNAP-tag) transfection using Lipofectamine 3000 (Thermo) according to Supplementary Section 2.8. After 24 h, the transfected cells were trypsinized, seeded into 24-well cell culture plates (1 × 10^5 cells per well) and incubated again for 24 h. […] Cell pellets were resuspended in PBS (400 µl) and analysed via flow cytometry (FACS Fortessa). The mean fluorescence intensity (MFI) values in the TMR and Cy5 (SiR) channels of live cells were determined. […] Equation (2) below was used to determine the percentage fluorescence intensity:2 Fluorescenceintensity%=(photocatalyst−chloroalkaneMFITMR)−(photocatalystMFITMR)/(CA−NHBocMFITMR)−(photocatalystMFITMR)×100.

[7] = test system: reporter HEK293T cells expressing cytoplasmic HaloTag–SNAP-tag fusion protein; assay: Modified chloroalkane penetration assay (CAPA), HEK293T; format: in vitro ADME; details: 1 h pulse, flow cytometry, Extended Data Fig. 6b, representative data of two biological replicates
Description: as §2

HeLa cells = assay: Cell viability assay (WST-1); format: cell-based; details: WST-1, 24 h incubation, Extended Data Fig. 5a
[8] = PBS pH 7.4, S3 1 mM, photocatalyst 0.1 mM, 450 nm 15 min, HPLC calibration curve, average of duplicate runs
[9] = PBS pH 7.4, diazirine 100 µM, photocatalyst 10 µM, 450 nm LED 15 min, average of duplicate runs

MeO-thioxanthone [2b]
Conversion of aryl azide S3 [1, 8]: 61% | Conversion of diazirine 1 [2, 9]: < 5%

Cn1c2nc(=O)[nH]c(=O)c-2cc2ccccc21 [compound 4, deazaflavin]
Conversion of aryl azide S3 [1, 8]: 100% | Conversion of diazirine 1 ([2]; 1:1 DMSO/H2O, 450 nm 15 min): 85%

N[C@@H](CCC(=O)N[C@@H](CS)C(=O)NCC(=O)O)C(=O)O [GSH, glutathione]
Quantum yield of electron transfer ΦeT to triplet state of 4 [3]: 73%

CC(C)(C)c1ccnc(-c2cc(C(C)(C)C)ccn2)c1.F[P-](F)(F)(F)(F)F.Fc1c[c-]c(-c2ccc(C(F)(F)F)cn2)c(F)c1.Fc1c[c-]c(-c2ccc(C(F)(F)F)cn2)c(F)c1.[Ir+3] [3b, [Ir(dF(CF3)ppy)2(dtbbpy)]PF6]
λmax ([4]; Supplementary Fig. 4, 1:1 DMSO/H2O): 380 nm | Singlet oxygen quantum yield ΦΔ ([4]; in acetonitrile): 93% | Triplet energy (ET, E0–0,T1) [5]: 60.1 kcal/mol

Riboflavin tetraacetate [RTA]
Conversion of aryl azide S3 ([1]; pH 7.4): 69%

Cn1c2nc(=O)n(CC(=O)NCCOCCOCCCCCCCl)c(=O)c-2cc2ccccc21 [compound 15]
CP50 (treatment concentration where 50% of the HaloTags are labelled) [6]: 198 ± 79.2 nM | CP50 [7]: 2,063 nM

O=C1OC2(c3ccccc31)c1cc(Br)c(O)c(Br)c1Oc1c2cc(Br)c(O)c1Br [EY, eosin Y]
Cytotoxicity (in words) (HeLa cells): do not induce cytotoxicity

diMeO-alloxazine [S2]
Conversion of aryl azide S3 [1, 8]: 94% | λmax ([4]; Supplementary Fig. 4): 396 nm

diMeO-deazaflavin [S1]
Conversion of aryl azide S3 [1, 8]: 79% | λmax ([4]; Supplementary Fig. 4): 418 nm | Conversion of diazirine 1 [2, 9]: < 50% and 44%

Ir[dFCF3CO2Hppy]2[diolbpy] [3a]
Cytotoxicity (in words) (HeLa cells): do not induce cytotoxicity | Conversion of aryl azide S3 [1, 8]: 84% | λmax ([4]; Supplementary Fig. 4): 380 nm | Triplet energy (ET, E0–0,T1) [5]: 60.1 kcal/mol

O=c1c2ccccc2sc2ccccc12 [2a, thioxanthone]
Conversion of aryl azide S3 [1, 8]: 77% | λmax of first absorption band ([4]; Fig. 1a, footnote a (footnote text not shown; a = 1:1 DMSO/H2O in Supplementary Fig. 4)): 385 nm | λmax ([4]; Supplementary Fig. 4): 387 nm | Triplet energy (ET, E0–0,T1) [5]: 67.4 kcal/mol | Conversion of diazirine 1 [2, 9]: 71% and > 70%
